Results: patent US20080255134A1 (Artesian Therapeutics, Inc., priority 2004, published 2008)
Like-named read-outs stand apart in the source and are kept apart here.

How the values were obtained:
PDE3 = biological target: T1, PDE3 (Homo sapiens, UniProt Q14432); assay: In vitro assay for cAMP PDE-3 inhibitory activity; type: biochemical
T1 construct: from tissue; host or cells: human platelets

[1] = test system: White New Zealand male rabbits; assay: In vivo β-adrenergic blockade, isoproterenol challenge (Protocol 1); design: species or system rabbit
Description: Studies were performed on White New Zealand male rabbits (2-3 kg weight). Animals were initially anesthetized with ketamine (50 mg/kg; IM) and xylazine (6 mg/kg, IM). Subsequently, animals were intubated (via tracheotomy; 3 mm tube) and ventilated with 2% isoflurane (mixed in 95% O2+5% CO2). Each rabbit was instrumented for LV pressure (3F Millar catheter) through right carotid artery, arterial pressure (3F catheter, Cook Instruments) through left femoral artery, which was connected to a fluid-filled pressure transducer (BD Instruments), and ECG. Both pressure transducers were zeroed against atmospheric pressure, and calibrated before each study using an analog manometer. Upon completion of instrumentation, isoflurane was reduced to 1.25%, and the animal was covered for maintenance of body core temperature. Arterial and LV blood pressures (LVP) and the ECG signals were simultaneously digitally recorded on a PC. The recording system (Gould Instruments) and the corresponding software (Ponema, Gould Instruments) facilitated detailed calculation of various parameters directly from all signals and record on a separate file with a 1 sec resolution. Upon completion of the study protocol, rabbits were euthenized by isoflurane overdose (5% for at least 1 minute) and cardiac arrest through IV infusion of 5 ml 3 molar potassium chloride.
Once the physiological variables were stable, effects of each drug on hemodynamics and ECG were determined based on two different protocols: 1) infusion of a compound of the present invention to determine the effects of the compound itself mainly on contractility, and other hemodynamic indices; and 2) infusion of a compound of the present invention while the system was challenged with 0.5 ug/kg isoproterenol to determine the beta-adrenergic antagonism properties of each tested compound.
White New Zealand male rabbits (2-3 kg) were anesthetized and ventilated (95% O2+5% CO2) with 1.25% isoflurane. Each animal was instrumented for LV pressure (Millar, through left carotid artery), arterial pressure (left femoral artery), infusion (jugular vein), and electrocardiogram. The animals were administered intravenously based on one of these protocols:
Protocol 1: β-adrenergic blockade (isoproterenol challenge).

[2] = test system: human fetal cardiac fibroblasts; assay: Cyclic-AMP production by fluorescence (intrinsic sympathomimetic activity); type: cell-based; conditions: IBMX (750 μM) present; compared to isoproterenol or forskolin; any concentration tested
Description: The effect of Compound 8c on cyclic-AMP production was determined in human fetal cardiac fibroblasts by fluorescence, presented in FIG. 18 as [F−Fo)/Fo], mean±SEM, N=4. IBMX (750 μM) was present in all assays.

[3] = Compound 25 0.3 mg/kg, carvedilol 0.1 mg/kg, Protocol 1, FIG. 13

T1 sequence (Q14432 whole entry): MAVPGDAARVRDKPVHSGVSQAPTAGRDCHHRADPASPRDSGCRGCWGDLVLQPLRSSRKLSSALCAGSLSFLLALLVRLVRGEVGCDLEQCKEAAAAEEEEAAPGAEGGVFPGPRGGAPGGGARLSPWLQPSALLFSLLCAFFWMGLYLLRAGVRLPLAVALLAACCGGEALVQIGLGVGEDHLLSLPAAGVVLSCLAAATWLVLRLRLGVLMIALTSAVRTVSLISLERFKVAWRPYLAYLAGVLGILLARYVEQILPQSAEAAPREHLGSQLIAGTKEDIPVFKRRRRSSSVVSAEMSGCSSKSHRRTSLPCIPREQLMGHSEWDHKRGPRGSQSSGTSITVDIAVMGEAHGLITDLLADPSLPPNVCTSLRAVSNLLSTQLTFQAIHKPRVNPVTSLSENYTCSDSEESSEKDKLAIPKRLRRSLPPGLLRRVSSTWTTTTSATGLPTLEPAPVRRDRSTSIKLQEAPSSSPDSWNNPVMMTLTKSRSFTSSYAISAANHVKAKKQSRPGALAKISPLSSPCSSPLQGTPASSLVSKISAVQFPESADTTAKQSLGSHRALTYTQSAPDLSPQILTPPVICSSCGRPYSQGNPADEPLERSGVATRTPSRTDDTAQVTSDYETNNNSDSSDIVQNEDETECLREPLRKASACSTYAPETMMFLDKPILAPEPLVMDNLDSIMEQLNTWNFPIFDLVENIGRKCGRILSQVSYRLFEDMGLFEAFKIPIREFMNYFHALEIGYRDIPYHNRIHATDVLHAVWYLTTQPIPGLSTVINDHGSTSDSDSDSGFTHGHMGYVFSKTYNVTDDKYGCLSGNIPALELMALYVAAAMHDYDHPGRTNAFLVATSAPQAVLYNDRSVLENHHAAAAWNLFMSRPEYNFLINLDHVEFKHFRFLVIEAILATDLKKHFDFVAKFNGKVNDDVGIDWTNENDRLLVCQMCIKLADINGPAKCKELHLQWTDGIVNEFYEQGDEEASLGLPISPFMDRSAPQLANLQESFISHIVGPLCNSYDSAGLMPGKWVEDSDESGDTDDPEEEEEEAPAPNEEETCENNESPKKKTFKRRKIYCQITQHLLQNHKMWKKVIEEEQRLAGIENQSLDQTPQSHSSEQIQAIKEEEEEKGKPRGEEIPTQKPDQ

O=C1CCC(c2ccc(OCCNCC(O)COc3cccc4[nH]c5ccccc5c34)c(Cl)c2)=NN1 (racemic) [Compound 25, 6-(4-{2-[3-(9H-Carbazol-4-yloxy)-2-hydroxy-propylamino]-ethoxy}-3-chloro-phenyl)-4,5-dihydro-2H-pyridazin-3-one] gave an IC50 (PDE3; human platelet cyclic AMP phosphodiesterase, bound stated, read-out: PDE3 inhibition IC50) of less than 1 µM, an IC50 (PDE3; human platelet cyclic AMP phosphodiesterase, bound stated, read-out: PDE IC50 inhibition values) of less than 0.1 µM and an IC50 (PDE3; human platelets, read-out: PDE3 IC50) of 0.019 µM. For the same molecule, the “contractility (LV+dP/dtmax) at ED50” value [1, 3] was “increased contractility”, the “mean arterial pressure (MAP) at ED50” value [1, 3] was “more potent decrease in mean arterial pressure (MAP) than carvedilol” and the ED50 ([1]; Oryctolagus cuniculus, isoproterenol challenge (0.5 μg/kg), intravenous, read-out: ED50, dose that diminished isoproterenol-dependent increase in HR by 50%) was 0.3 mg/kg. For the same molecule, the “relaxation properties (Tau) at ED50” value ([1]; compared to control, Protocol 1, FIG. 13) was “did not change the relaxation properties (Tau)”, the “β-adrenergic antagonism on heart rate (HR)” value ([1]; during isoproterenol challenge (0.5 μg/kg), FIG. 11) was “dose-dependent β-adrenergic antagonism” and the “intrinsic sympathomimetic activity (cyclic-AMP production)” value [2] was “neither Compound 8c nor Compound 25 possessed intrinsic sympathomimetic activity”.
